Data: the Kinase Knowledgebase extract (Sharma et al. 2016)

Columns and labels:
[1] = biological target: PIK3CB (Human) (UniProt P42338); assay: Inhibition of PIK3CB Kinase Activity
[2] = biological target: PIK3CD (Human) (UniProt O00329); assay: Inhibition of PIK3CD Kinase Activity
[3] = biological target: PIK3CG (human) (UniProt P48736); assay: Inhibition of PIK3CG Kinase Activity
[4] = biological target: PIK3CA (human) (UniProt P42336); assay: Inhibition of PIK3CA Kinase Activity
PIK3CA (human), sequence (P42336 whole entry, looked up): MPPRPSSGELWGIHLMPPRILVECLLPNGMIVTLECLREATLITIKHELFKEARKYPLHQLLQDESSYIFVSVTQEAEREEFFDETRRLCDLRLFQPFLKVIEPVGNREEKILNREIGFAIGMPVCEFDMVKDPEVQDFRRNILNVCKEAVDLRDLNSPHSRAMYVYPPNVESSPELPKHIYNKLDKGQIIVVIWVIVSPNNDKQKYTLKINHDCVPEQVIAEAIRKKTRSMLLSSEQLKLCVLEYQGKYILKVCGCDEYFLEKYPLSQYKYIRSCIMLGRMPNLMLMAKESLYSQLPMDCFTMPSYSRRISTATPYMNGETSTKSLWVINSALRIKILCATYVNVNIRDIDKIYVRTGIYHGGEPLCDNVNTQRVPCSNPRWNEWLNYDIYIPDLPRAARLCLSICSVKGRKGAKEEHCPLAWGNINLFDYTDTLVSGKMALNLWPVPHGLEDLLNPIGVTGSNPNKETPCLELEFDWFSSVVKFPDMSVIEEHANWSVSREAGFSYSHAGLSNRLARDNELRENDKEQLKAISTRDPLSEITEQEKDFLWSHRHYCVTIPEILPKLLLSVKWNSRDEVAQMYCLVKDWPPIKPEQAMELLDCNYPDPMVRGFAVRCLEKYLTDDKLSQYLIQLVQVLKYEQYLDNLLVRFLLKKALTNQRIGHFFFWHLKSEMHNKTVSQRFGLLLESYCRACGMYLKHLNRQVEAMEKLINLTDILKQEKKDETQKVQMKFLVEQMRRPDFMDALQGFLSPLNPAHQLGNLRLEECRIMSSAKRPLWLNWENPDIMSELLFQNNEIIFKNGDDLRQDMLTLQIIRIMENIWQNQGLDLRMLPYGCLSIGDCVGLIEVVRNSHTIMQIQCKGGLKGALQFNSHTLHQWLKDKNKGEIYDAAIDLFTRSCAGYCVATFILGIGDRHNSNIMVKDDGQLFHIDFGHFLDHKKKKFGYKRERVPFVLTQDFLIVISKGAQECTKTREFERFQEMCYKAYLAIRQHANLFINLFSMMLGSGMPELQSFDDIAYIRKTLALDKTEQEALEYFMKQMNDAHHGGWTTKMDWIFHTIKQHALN

PIK3CB (Human), sequence (P42338 whole entry, looked up): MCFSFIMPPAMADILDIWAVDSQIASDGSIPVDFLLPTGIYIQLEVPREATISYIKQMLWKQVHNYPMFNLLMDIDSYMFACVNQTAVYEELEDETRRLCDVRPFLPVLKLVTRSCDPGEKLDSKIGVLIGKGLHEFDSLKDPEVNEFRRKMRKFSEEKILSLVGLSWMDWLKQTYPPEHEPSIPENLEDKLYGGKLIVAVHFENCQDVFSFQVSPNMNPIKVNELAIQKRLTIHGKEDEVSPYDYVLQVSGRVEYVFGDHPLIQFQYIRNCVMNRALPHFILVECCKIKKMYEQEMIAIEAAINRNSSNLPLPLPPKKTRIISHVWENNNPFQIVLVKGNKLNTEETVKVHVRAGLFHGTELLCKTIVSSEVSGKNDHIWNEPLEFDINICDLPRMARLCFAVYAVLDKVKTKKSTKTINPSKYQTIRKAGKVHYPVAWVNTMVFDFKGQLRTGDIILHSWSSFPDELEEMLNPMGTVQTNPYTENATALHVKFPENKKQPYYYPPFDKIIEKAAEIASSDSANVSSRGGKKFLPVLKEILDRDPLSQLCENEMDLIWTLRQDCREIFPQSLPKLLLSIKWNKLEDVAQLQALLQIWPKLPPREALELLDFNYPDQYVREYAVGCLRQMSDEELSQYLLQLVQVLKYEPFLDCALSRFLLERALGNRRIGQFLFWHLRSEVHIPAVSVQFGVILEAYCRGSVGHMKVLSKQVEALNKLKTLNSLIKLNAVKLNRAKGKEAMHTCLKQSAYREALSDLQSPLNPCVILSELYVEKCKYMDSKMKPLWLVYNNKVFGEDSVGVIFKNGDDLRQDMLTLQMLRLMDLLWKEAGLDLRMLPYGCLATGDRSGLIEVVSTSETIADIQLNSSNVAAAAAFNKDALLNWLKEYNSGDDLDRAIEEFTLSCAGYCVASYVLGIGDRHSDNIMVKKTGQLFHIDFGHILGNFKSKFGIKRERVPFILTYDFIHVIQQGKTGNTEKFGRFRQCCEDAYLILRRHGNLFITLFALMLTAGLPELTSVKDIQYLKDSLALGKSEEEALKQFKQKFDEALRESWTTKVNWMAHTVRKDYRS
PIK3CD (Human), sequence (O00329 whole entry, looked up): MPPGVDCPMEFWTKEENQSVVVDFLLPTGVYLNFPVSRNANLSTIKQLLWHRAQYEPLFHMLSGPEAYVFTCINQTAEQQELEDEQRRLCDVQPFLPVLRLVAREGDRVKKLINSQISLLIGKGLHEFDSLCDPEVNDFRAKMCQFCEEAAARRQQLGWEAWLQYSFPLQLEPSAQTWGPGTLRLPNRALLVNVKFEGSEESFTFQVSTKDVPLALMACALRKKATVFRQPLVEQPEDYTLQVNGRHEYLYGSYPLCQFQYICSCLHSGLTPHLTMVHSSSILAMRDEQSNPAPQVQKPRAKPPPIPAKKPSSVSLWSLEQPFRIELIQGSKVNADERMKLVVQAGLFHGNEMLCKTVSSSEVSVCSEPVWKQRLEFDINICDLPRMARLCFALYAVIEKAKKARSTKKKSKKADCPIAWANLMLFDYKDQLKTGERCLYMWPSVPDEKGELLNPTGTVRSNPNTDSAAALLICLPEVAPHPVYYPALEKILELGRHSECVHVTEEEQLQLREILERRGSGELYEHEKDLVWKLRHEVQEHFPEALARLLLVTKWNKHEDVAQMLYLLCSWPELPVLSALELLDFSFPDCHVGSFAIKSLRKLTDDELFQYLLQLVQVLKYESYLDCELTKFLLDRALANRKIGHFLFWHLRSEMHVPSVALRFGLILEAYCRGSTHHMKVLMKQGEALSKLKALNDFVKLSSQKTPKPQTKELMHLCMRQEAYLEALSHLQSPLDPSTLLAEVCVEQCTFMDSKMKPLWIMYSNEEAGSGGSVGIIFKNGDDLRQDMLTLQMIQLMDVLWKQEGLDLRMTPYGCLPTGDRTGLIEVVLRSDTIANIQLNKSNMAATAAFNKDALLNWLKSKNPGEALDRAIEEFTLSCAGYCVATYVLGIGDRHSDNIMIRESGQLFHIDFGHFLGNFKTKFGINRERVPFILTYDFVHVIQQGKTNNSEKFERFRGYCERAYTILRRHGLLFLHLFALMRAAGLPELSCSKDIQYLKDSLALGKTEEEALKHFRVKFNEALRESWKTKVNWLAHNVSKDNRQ
PIK3CG (human), sequence (P48736 whole entry, looked up): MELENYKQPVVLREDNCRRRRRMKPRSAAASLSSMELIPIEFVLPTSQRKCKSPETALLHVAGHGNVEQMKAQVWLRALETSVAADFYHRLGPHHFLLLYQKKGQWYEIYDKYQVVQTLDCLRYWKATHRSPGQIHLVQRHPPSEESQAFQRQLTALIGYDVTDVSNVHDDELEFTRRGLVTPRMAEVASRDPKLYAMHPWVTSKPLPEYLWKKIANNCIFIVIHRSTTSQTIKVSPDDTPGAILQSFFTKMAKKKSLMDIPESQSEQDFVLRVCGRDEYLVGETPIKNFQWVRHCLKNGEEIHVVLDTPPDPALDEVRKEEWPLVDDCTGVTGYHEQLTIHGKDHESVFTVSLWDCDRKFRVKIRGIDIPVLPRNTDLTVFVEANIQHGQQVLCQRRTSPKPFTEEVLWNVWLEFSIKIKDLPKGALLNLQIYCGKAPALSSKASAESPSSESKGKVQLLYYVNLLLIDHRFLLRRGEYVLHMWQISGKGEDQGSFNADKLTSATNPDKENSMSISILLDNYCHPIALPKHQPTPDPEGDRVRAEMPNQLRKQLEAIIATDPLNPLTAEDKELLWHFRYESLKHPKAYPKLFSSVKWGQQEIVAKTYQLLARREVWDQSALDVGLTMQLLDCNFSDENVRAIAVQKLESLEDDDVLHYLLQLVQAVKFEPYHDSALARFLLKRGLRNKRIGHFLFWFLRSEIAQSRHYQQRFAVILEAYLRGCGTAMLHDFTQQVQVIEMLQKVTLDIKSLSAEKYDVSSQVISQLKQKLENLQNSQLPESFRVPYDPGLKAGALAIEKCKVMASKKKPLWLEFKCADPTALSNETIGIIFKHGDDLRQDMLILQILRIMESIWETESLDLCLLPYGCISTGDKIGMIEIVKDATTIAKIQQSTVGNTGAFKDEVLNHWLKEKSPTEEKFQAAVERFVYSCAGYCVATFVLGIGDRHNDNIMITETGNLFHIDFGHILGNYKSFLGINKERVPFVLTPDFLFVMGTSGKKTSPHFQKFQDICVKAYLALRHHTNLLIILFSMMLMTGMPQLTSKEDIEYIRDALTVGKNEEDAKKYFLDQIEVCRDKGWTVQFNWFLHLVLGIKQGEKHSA

For `C[C@H](Nc1nc(N)ncc1C#N)c1cc2cccc(-c3cnn(C)c3)c2c(=O)n1C1CC1`, the IC50 [1] was under 100 nM, the IC50 [2] was under 100 nM and the IC50 [3] was under 100 nM.

With `Cc1ccc(-c2cccc3cc([C@H](C)Nc4ncnc5[nH]cnc45)n(-c4ccccc4)c(=O)c23)cn1` the IC50 [1] was over 10000 nM, the IC50 [2] was under 100 nM and the IC50 [3] was under 100 nM.

Work on `C[C@H](Nc1ncnc(N)n1)c1cc2cccc(-c3cnn(C)c3)c2c(=O)n1-c1ccccc1` yielded an IC50 [1] of over 10000 nM, an IC50 [2] of under 100 nM and an IC50 [4] of over 10000 nM.

Work on `C[C@H](Nc1ncnc2[nH]cnc12)c1cc2cccc(-c3cccnc3)c2c(=O)[nH]1` yielded an IC50 [1] of over 10000 nM, an IC50 [2] of under 100 nM and an IC50 [4] of over 10000 nM. It also gave an IC50 [3] of 100 to 1000 nM.

`Cc1cc(-c2cccc3cc([C@H](C)Nc4ncnc5[nH]cnc45)n(-c4ccccc4)c(=O)c23)ccn1` was tested, and the IC50 [2] was under 100 nM, the IC50 [4] was 100 to 1000 nM and the IC50 [3] was under 100 nM.

`C[C@H](Nc1ncnc2[nH]cc(C#N)c12)c1cc2cccc(-c3cnn(C)c3)c2c(=O)n1-c1ccccc1` showed an IC50 [2] of under 100 nM, an IC50 [4] of 100 to 1000 nM and an IC50 [3] of under 100 nM.

`C[C@H](Nc1ncnc2[nH]cnc12)c1cc2cccc(NC3CCOCC3)c2c(=O)n1-c1ccccc1` showed an IC50 [1] of over 10000 nM, an IC50 [2] of 100 to 1000 nM and an IC50 [4] of over 10000 nM.

`COc1ncc(-c2cccc3cc([C@H](C)Nc4ncnc5[nH]cnc45)n(-c4ccccc4)c(=O)c23)cn1` was tested, and the IC50 [1] was over 10000 nM and the IC50 [2] was under 100 nM.

`C[C@H](Nc1ncnc2[nH]cnc12)c1cc2cccc(-c3cnn(C)c3)c2c(=O)n1C1CC1` showed an IC50 [2] of under 100 nM and an IC50 [3] of 100 to 1000 nM.

Work on `C[C@H](Nc1ncnc2[nH]cnc12)c1cc2cccc(N(C)C)c2c(=O)n1-c1ccccc1` yielded an IC50 [1] of over 10000 nM and an IC50 [4] of over 10000 nM.

In the case of `Cc1ccc(-c2cccc3cc([C@H](C)Nc4ncnc(N)n4)n(-c4ccccc4)c(=O)c23)cn1`, the IC50 [1] is reported as over 10000 nM, the IC50 [2] is reported as 100 to 1000 nM and the IC50 [4] is reported as over 10000 nM.

`C[C@H](Nc1ncnc2[nH]cnc12)c1cc2cccc(N3CCN(C)CC3)c2c(=O)n1-c1ccccc1` was tested, and the IC50 [1] was over 10000 nM, the IC50 [2] was 100 to 1000 nM and the IC50 [4] was over 10000 nM. The IC50 [3] was over 10000 nM.

For `C[C@H](Nc1ncnc2[nH]cnc12)c1cc2cccc(-c3cn[nH]c3)c2c(=O)n1C1CC1`, the IC50 [1] was 100 to 1000 nM, the IC50 [2] was under 100 nM and the IC50 [4] was 100 to 1000 nM. The IC50 [3] was under 100 nM.

`C[C@H](Nc1ncnc2[nH]cnc12)c1cc2cccc(-n3cccn3)c2c(=O)n1-c1ccccc1` gave an IC50 [1] of over 10000 nM, an IC50 [2] of 100 to 1000 nM and an IC50 [4] of over 10000 nM.

`C[C@H](Nc1nc(N)nc2[nH]cnc12)c1cc2cccc(-c3cccnc3)c2c(=O)n1-c1ccccc1` gave an IC50 [2] of under 100 nM, an IC50 [4] of 100 to 1000 nM and an IC50 [3] of under 100 nM.

`C[C@H](Nc1ncnc2[nH]cnc12)c1cc2cccc(-c3cc[nH]n3)c2c(=O)n1-c1ccccc1` showed an IC50 [1] of over 10000 nM, an IC50 [2] of under 100 nM and an IC50 [4] of over 10000 nM. The IC50 [3] was under 100 nM.

Work on `C[C@H](Nc1ncnn2cncc12)c1cc2cccc(-c3cnn(C)c3)c2c(=O)n1-c1ccccc1` yielded an IC50 [1] of over 10000 nM, an IC50 [4] of over 10000 nM and an IC50 [3] of over 10000 nM.

Compound `C[C@H](Nc1ncnn2ccnc12)c1cc2cccc(-c3cnn(C)c3)c2c(=O)n1-c1ccccc1` has an IC50 [1] of over 10000 nM, an IC50 [2] of under 100 nM and an IC50 [3] of 100 to 1000 nM.

For `Cc1cn(-c2cccc3cc([C@H](C)Nc4ncnc5[nH]cnc45)n(-c4ccccc4)c(=O)c23)cn1`, the IC50 [1] was over 10000 nM, the IC50 [2] was under 100 nM and the IC50 [4] was over 10000 nM.

Work on `C[C@H](Nc1ncnc2[nH]cnc12)c1cc2cccc(-c3cnn(C)c3)c2c(=O)[nH]1` yielded an IC50 [1] of over 10000 nM, an IC50 [4] of over 10000 nM and an IC50 [3] of over 10000 nM.

`Cc1cnn(-c2cccc3cc([C@H](C)Nc4ncnc5[nH]cnc45)n(-c4ccccc4)c(=O)c23)c1` was tested, and the IC50 [1] was over 10000 nM, the IC50 [2] was 100 to 1000 nM and the IC50 [4] was over 10000 nM.

With `C[C@H](Nc1ncnc2[nH]cnc12)c1cc2cccc(-c3cn[nH]c3)c2c(=O)n1-c1ccccc1` the IC50 [1] was over 10000 nM, the IC50 [2] was under 100 nM and the IC50 [3] was 100 to 1000 nM.

Work on `C[C@H](Nc1ncnc2[nH]cnc12)c1cc2cccc(C#N)c2c(=O)n1-c1ccccc1` yielded an IC50 [2] of under 100 nM, an IC50 [4] of over 10000 nM and an IC50 [3] of under 100 nM.

With `C[C@H](Nc1ncnc2[nH]cnc12)c1cc2cccc(-c3cnn(C)c3)c2c(=O)n1-c1cccc(F)c1` the IC50 [1] was over 10000 nM, the IC50 [2] was under 100 nM and the IC50 [3] was under 100 nM.

`C[C@H](Nc1ncnc(N)c1C#N)c1cc2cccc(-c3cnn(C)c3)c2c(=O)n1-c1ccccc1` showed an IC50 [1] of over 10000 nM, an IC50 [2] of under 100 nM and an IC50 [3] of under 100 nM.

With `C[C@H](Nc1ncnc2[nH]cnc12)c1cc2cccc(N3CCOCC3)c2c(=O)n1-c1ccccc1` the IC50 [1] was over 10000 nM, the IC50 [2] was 100 to 1000 nM and the IC50 [4] was over 10000 nM. The IC50 [3] was 100 to 1000 nM.

With `C[C@H](Nc1ncnc2[nH]cnc12)c1cc2cccc(N3CCCC3)c2c(=O)n1-c1ccccc1` the IC50 [1] was over 10000 nM and the IC50 [4] was over 10000 nM.

In the case of `C[C@H](Nc1nc(N)nc2[nH]cnc12)c1cc2cccc(-c3cnn(C)c3)c2c(=O)n1-c1ccccc1`, the IC50 [2] is reported as under 100 nM, the IC50 [4] is reported as 100 to 1000 nM and the IC50 [3] is reported as under 100 nM.

Compound `C[C@H](Nc1nc(N)ncc1I)c1cc2cccc(-c3cnn(C)c3)c2c(=O)n1-c1ccccc1` has an IC50 [1] of over 10000 nM, an IC50 [2] of under 100 nM and an IC50 [4] of over 10000 nM. The IC50 [3] was under 100 nM.

Compound `C[C@H](Nc1ncnc2[nH]cc(C(N)=O)c12)c1cc2cccc(-c3cnn(C)c3)c2c(=O)n1-c1ccccc1` has an IC50 [2] of under 100 nM and an IC50 [3] of under 100 nM.

Work on `C[C@H](Nc1ncnc2[nH]cnc12)c1cc2cccc(-c3cccnc3)c2c(=O)n1-c1ccccc1` yielded an IC50 [2] of under 100 nM and an IC50 [3] of under 100 nM.

With `C=Cc1cccc2cc([C@H](C)Nc3ncnc4[nH]cnc34)n(-c3ccccc3)c(=O)c12` the IC50 [2] was under 100 nM and the IC50 [3] was under 100 nM.

With `C[C@H](Nc1ncnc2[nH]cc(F)c12)c1cc2cccc(-c3cnn(C)c3)c2c(=O)n1C1CC1` the IC50 [2] was under 100 nM and the IC50 [3] was 100 to 1000 nM.

Compound `Cc1ccc(-c2cccc3cc([C@H](C)Nc4nc(N)nc5[nH]cnc45)n(-c4ccccc4)c(=O)c23)cn1` has an IC50 [2] of under 100 nM, an IC50 [4] of 100 to 1000 nM and an IC50 [3] of under 100 nM.

`C[C@H](Nc1nc(N)ncc1C(F)(F)F)c1cc2cccc(-c3cnn(C)c3)c2c(=O)n1-c1ccccc1` gave an IC50 [1] of over 10000 nM, an IC50 [2] of under 100 nM and an IC50 [4] of over 10000 nM. The IC50 [3] was under 100 nM.

`C[C@H](Nc1nc(N)ncc1Cl)c1cc2cccc(-c3cnn(C)c3)c2c(=O)n1-c1ccccc1` showed an IC50 [1] of over 10000 nM, an IC50 [2] of under 100 nM and an IC50 [4] of over 10000 nM. For the same compound, the IC50 [3] was 100 to 1000 nM.

For `CCc1cccc2cc([C@H](C)Nc3ncnc4[nH]cnc34)n(-c3ccccc3)c(=O)c12`, the IC50 [2] was under 100 nM and the IC50 [3] was under 100 nM.

`C[C@H](Nc1ncnc2[nH]cnc12)c1cc2cccc(-c3cccc(F)c3)c2c(=O)n1-c1ccccc1` was tested, and the IC50 [2] was under 100 nM and the IC50 [3] was under 100 nM.

For `C[C@H](Nc1nc(N)ncc1C#N)c1cc2cccc(-c3cnn(C)c3)c2c(=O)n1-c1ccccc1`, the IC50 [1] was over 10000 nM, the IC50 [2] was under 100 nM and the IC50 [4] was over 10000 nM. The IC50 [3] was under 100 nM.

With `C[C@H](Nc1ncnc2[nH]cnc12)c1cc2cccc(-c3cnn(C)c3)c2c(=O)n1-c1ccccc1` the IC50 [1] was over 10000 nM, the IC50 [2] was under 100 nM and the IC50 [4] was over 10000 nM. For the same compound, the IC50 [3] was under 100 nM.

For `C[C@H](Nc1nc(N)ncc1C(F)(F)F)c1cc2cccc(-c3cnn(C)c3)c2c(=O)n1C1CC1`, the IC50 [1] was over 10000 nM, the IC50 [2] was under 100 nM and the IC50 [4] was over 10000 nM. It also gave an IC50 [3] of under 100 nM.

For `C[C@H](Nc1ncnc2[nH]cnc12)c1cc2cccc(-c3cccnc3)c2c(=O)n1C1CC1`, the IC50 [1] was 100 to 1000 nM, the IC50 [2] was under 100 nM and the IC50 [3] was under 100 nM.

Compound `C[C@H](Nc1ncnc2[nH]cnc12)c1cc2cccc(-c3ccncc3)c2c(=O)n1-c1ccccc1` has an IC50 [2] of under 100 nM and an IC50 [3] of under 100 nM.
